{"source": "patent US10973776B1", "about": "“Loteprednol etabonate nanoparticles in thermoreversible gels for enhanced therapeutics” (University of South Florida, priority 2015, dated 2021)", "type_in_all_cases": "cell-based, Human", "key": {"ARPE-19 cells [1]": {"tested_on": "ARPE-19 cells", "assay": "MTT cytotoxicity assay of LE DDS", "details": "1, 10, 100 μM, 24 hours", "procedure": "(§1) Human retinal pigment epithelium, ARPE-19, cells (ATCC # CRL-2302) were grown in 1:1 Dulbecco's Modified Eagle's Medium and Ham's F12 Medium (Mediatech, Inc., Manassas, Va.) with 10% fetal bovine serum and 100 U/mL penicillin/streptomycin (Sigma Aldrich, St. Louis, Mo.). The cultures were maintained in a humid environment at 5% CO2 and 37° C.\nCytotoxicity was assessed in ARPE-19 cells by the 3-(4,5-dimethylthiazol-2-yl)-2,5-diphenyltetrazolium bromide salt (MTT) assay. Briefly, cells were seeded in 24-well plates at a density of 5×10^4 cells/mL for 24 hours to achieve confluence before treatment. Cells were exposed to free LE solution, LE NPs, and LE NPs-TR gel at varying concentrations (0, 1, 10, 100 μM) for 24 hours after which the MTT assay was performed. Cell culture media were aspirated and 300 μL of MTT reagent solution (1 mg/mL) was added to each well. Cells were incubated at 37° C. and 5% CO2 for 4 hours, after which the MTT reagent solution was aspirated and 500 μL of DMSO was added to each well. Plates were allowed to shake gently for 10 minutes before being read by Synergy H4 plate reader (Biotek Industries, Inc., Winooski, Vt.) at absorbance of 570 nm."}, "[2]": {"tested_on": "VEGF secretion in ARPE-19 cells", "assay": "VEGF secretion ELISA, LE formulations", "procedure": "as §1\nARPE-19 cells were seeded onto 24-well plates at 5×10^4 cells/mL and allowed to grow until confluence. On the day of study, cell culture media were replaced with 1% FBS experimental media and allowed to remain in quiescence for 12 hours. The cellular monolayers were incubated with varying treatment concentrations of free LE solution (1, 10 μM), LE NPs (10 μM), and LE NPs-TR gel (10 μM). Culture media were collected at 12 and 72 hours. Secreted VEGF in collected culture media was quantified by the ELISA method (Human VEGFA ELISA kit, Thermo Scientific, Waltham, Mass.). The cell protein content was assayed using the BCA protein assay kit after lysing the cells and VEGF secretion was normalized to total protein. Samples were read by using the Synergy H4 plate reader (Biotek Industries, Inc., Winooski, Vt.) with absorbance at 450 nm minus absorbance at 550 nm."}, "ARPE-19 cells [3]": {"tested_on": "ARPE-19 cells", "assay": "MTT cytotoxicity assay of TA DDS", "details": "10 μM, 24 h", "procedure": "Human retinal pigment epithelium, ARPE-19, cells (ATCC # CRL-2302) were grown in 1:1 Dulbecco's Modified Eagle's Medium and Ham's F12 Medium (Mediated, Inc., Manassas, Va.) with 10% fetal bovine serum and 100 Um′ penicillin/streptomycin (Sigma Aldrich, St. Louis, Mo.). The cultures were maintained in a humid environment at 5% CO2 and 37° C.\nThe cytotoxicity of the DDS was assessed in ARPE-19 cells by the 3-(4,5-dimethylthiazol-2-yl)-2,5-diphenyltetrazolium bromide salt (MTT) assay. Briefly, cells were seeded in 24-well plates at a density of 5×10^4 cells/ml for 24 h to achieve confluency before treatment. Cells were exposed to free TA, TA NPs, and TA NP-TR gel at varying concentrations (0, 1, 10, 100 μM) for 24 h after which the MTT assay was performed. Cell culture media were aspirated, and […] of MTT reagent solution (1 mg/ml) was added to each well. Cells were incubated at 37° C. and 5% CO2 for 4 h, after which the MTT reagent solution was aspirated and 1 mL of DMSO was added to each well. Plates were allowed to shake gently for 10 min before being read by Synergy H4 plate reader (Biotek Industries, Inc., Winooski, Vt.) at absorbance of 570 nm."}, "[4]": {"tested_on": "VEGF secretion in ARPE-19 cells", "assay": "VEGF secretion ELISA, TA formulations", "details": "10 μM, 72 h", "procedure": "Human retinal pigment epithelium, ARPE-19, cells (ATCC # CRL-2302) were grown in 1:1 Dulbecco's Modified Eagle's Medium and Ham's F12 Medium (Mediated, Inc., Manassas, Va.) with 10% fetal bovine serum and 100 Um′ penicillin/streptomycin (Sigma Aldrich, St. Louis, Mo.). The cultures were maintained in a humid environment at 5% CO2 and 37° C. ARPE-19 cells were seeded onto 24-well plates at 5×10^4 cells/ml and allowed to grow until confluence. On the day of study, cell culture media were replaced with 1% FBS experimental media and allowed to remain in quiescence for 12 h. The cellular monolayers were incubated with varying treatment concentrations of free TA solution (1, 10 and 100 μM), TA NPs (10 and 100 μM) and TA NP-TR gel (10 and 100 μM). Culture media were collected at 12 and 72 h. Secreted VEGF in collected culture media was quantified by the ELISA method (Human VEGFA ELISA kit, Thermo Scientific, Waltham, Mass.). The cell protein content was assayed using the BCA protein assay kit after lysing the cells, and VEGF secretion was normalized to total protein. Samples were read using the Synergy H4 plate reader (Biotek Industries, Inc., Winooski, Vt.) with absorbance at 450 nm minus absorbance at 550 nm."}}, "note": "“Also recorded” adds a separate entry of the source.", "data": [{"smiles": "CCOC(=O)O[C@]1(C(=O)OCCl)CC[C@H]2[C@@H]3CCC4=CC(=O)C=C[C@]4(C)[C@H]3[C@@H](O)C[C@@]21C", "note": "[free LE, Loteprednol etabonate]", "values": [{"measurement": "MTT cytotoxicity vs untreated control cells", "setting": "ARPE-19 cells [1]", "value": "no impact on cell viability"}, {"measurement": "MTT cytotoxicity vs untreated control cells", "setting": "ARPE-19 cells [1]; listed as free LE solution", "value": "no cytotoxicity"}, {"measurement": "suppression of VEGF expression vs media control", "setting": "[2]; 1 μM, 12 hours", "value": "showed reduction in VEGF expression"}, {"measurement": "suppression of VEGF secretion vs control", "setting": "[2]; 10 μM, 12 hours", "value": "showed reduction in VEGF expression"}, {"measurement": "reduction of VEGF expression compared to control", "setting": "[2]; within 12 hours, p<0.05, concentration not stated", "value": "significantly reduced VEGF expression"}]}, {"smiles": "CC1(C)O[C@@H]2C[C@H]3[C@@H]4CCC5=CC(=O)C=C[C@]5(C)[C@@]4(F)[C@@H](O)C[C@]3(C)[C@]2(C(=O)CO)O1", "note": "[free TA, Triamcinolone acetonide]", "values": [{"measurement": "MTT cytotoxicity vs untreated control cells", "setting": "ARPE-19 cells [3]", "value": "induced significant cell death; also recorded: cytotoxic"}, {"measurement": "suppression of VEGF expression", "setting": "[4]", "value": "no significant effect"}]}]}
